{"source": "patent US20080032961A1", "about": "“Therapy employing LXRalpha modolators” (priority 2001, published 2008)", "type_in_all_cases": "cell-based", "key": {"[1]": {"tested_on": "LXRα mRNA in 3T3-L1 adipocytes", "experiment": "Northern blot analysis of LXRα mRNA in 3T3-L1 adipocytes", "settings": "for LXRα mRNA (Northern blot of total RNA): differentiating 3T3-L1 cells, 22-R 5 μM, Darglitazone 1 μM, alone or in combination, 24 hours, FIG. 2", "experimental": "We performed Northern blot analysis on total RNA from 3T3-L1 adipocytes treated with increasing doses of a PPARγ agonist. Adipocytes treated over a 24 hrs period with […] of Darglitazone. 20 μg total RNA was subjected to Northern blotting and probed with a ^32P-labeled LXRα cDNA probe. The signal was obtained by scanning the autoradiogram and normalised for 18S RNA expression. […] These concentrations are in agreement with concentrations required for activation of PPARγ in reporter assays (Lehmann et al. 1995).\n(§1) 3T3-L1 cells committed to adipocyte differentiation were treated with either Darglitazone, the LXRα agonist 22-R-hydroxy cholesterol, or both. 22-R-hydroxy cholesterol (22-R) is a naturally occurring agonist for LXRα (Janowski et al. 1996). […] Therefore, treatment of 3T3-L1 pre-adipocytes with either a PPARγ agonist or an LXRα agonist leads to fat accumulation and increased expression of LXRα.\n(§2) The 3T3-L1 cell line (ATCC) was maintained in DMEM supplemented with 10% fetal calf serum, 2 mM L-glutamine and penicillin/streptomycin at 37° C. Cells were grown to confluence and exposed to adipogenic reagents for 3 days, followed by culturing for 3 more days in medium containing insulin only as described elsewhere (Lin and Lane, 1992). Insulin was used at a concentration of 1 μg/ml, dexamethasone at 1 μM and isobutylmethylxanthine at 0.5 mM.\n(§3) Total RNA from differentiated 3T3-L1 adipocytes or adipose tissue were extracted by the Trizol (Life Technologies, Inc.) method as recommended by the manufacturer. Northern blot analysis of RNA was performed as described earlier (Sorensen et al., 1994). 20 μg of total RNA was analyzed for LXRα and ribosomal protein 18S mRNA."}, "3T3-L1 cells": {"tested_on": "3T3-L1 cells", "experiment": "Oil Red O staining of lipid droplet accumulation / adipocyte differentiation of 3T3-L1 cells", "settings": "for lipid droplets (Oil Red-O staining): 3T3-L1 cells committed to adipocyte differentiation", "experimental": "as §1, §2\nLight microscopy and Oil Red O staining were used to monitor the characteristic cell rounding and lipid droplet accumulation in these cells during differentiation. Images were taken using a microscope (Leica DMIL) and a dual-colour charge coupled device camera (Leica MPS 60)."}, "[2]": {"tested_on": "LXRα mRNA in human adipocytes", "experiment": "Northern blot analysis of LXRα mRNA in human adipocytes", "settings": "1 μM Darglitazone, 5 μM 22-(R)-hydroxy cholesterol or both, 48 hrs, FIG. 3", "experimental": "Human adipocytes were obtained from breast reduction surgery. Pieces of adipose tissue (5-600 mg) were prepared under sterile conditions and used for incubations in plastic tubes essentially as described (Ottosson et al., 1994). PolyA+ RNA was isolated and subjected to Northern blot analysis (FIG. 3).\nas §3"}}}
{"compound": "Cc1oc(-c2ccccc2)nc1CCC(=O)c1ccc(CC2SC(=O)NC2=O)cc1", "note": "(centres unmarked) [Darglitazone]", "values": [{"measurement": "induction of LXRa mRNA", "setting": "[1]; 3T3-L1 adipocytes, 24 hrs, 0.01, 0.1, and 1 mM, normalised for 18S RNA, FIG. 1", "result": "approximately 5 fold"}, {"measurement": "LXRα mRNA (Northern blot of total RNA)", "setting": "[1]", "result": "increase"}, {"measurement": "lipid droplets (Oil Red-O staining)", "setting": "3T3-L1 cells", "result": "gradually larger lipid droplets"}, {"measurement": "expression levels of LXRα mRNA (Northern blot of PolyA+ RNA)", "setting": "[2]", "result": "increased expression levels"}]}
{"compound": "CC(C)CC[C@@H](O)[C@@H](C)[C@H]1CC[C@H]2[C@@H]3CC=C4C[C@@H](O)CC[C@]4(C)[C@H]3CC[C@]12C", "note": "[22-R-hydroxy cholesterol]", "values": [{"measurement": "LXRα mRNA (Northern blot of total RNA)", "setting": "[1]", "result": "increase"}, {"measurement": "lipid droplets (Oil Red-O staining)", "setting": "3T3-L1 cells", "result": "gradually larger lipid droplets"}, {"measurement": "adipocyte differentiation of 3T3-L1 pre-adipocytes", "setting": "3T3-L1 cells; 3T3-L1 pre-adipocytes", "result": "enhances adipocyte differentiation"}, {"measurement": "expression levels of LXRα mRNA (Northern blot of PolyA+ RNA)", "setting": "[2]", "result": "increased expression levels"}]}
